We go through 47 sequences from US8981046B2, “Synthetic cell platforms and methods of use thereof” (The Regents of the University of California, priority 2007, dated 2015).

Experiment [1] deals with neural stem cells. The experiment is described as follows: Flow cytometry binding of clonal peptide-displaying bacteria to neural stem cells. More on the design: species or system rat. Conditions: clonal bacterial populations after third round of selection. An excerpt:
This technology has also been used to identify peptides capable of binding to the surface of adult neural stem cells. Both N- and C-terminal peptide display libraries were screened on NSCs, with the first two rounds selected through centrifugal pelleting of NSCs to isolate bacterial clones displaying binding peptides, and the third round selected through FACS. Following the third round, numerous peptide clones were sequenced (˜30 novel sequences determined to date).
Three different, validated peptide libraries were pooled to generate a large library (>10^10 independent clones) and were used for selection and screening.^79 These libraries include a random 15-mer (—X15—) fused to either the N- or C-terminus of the CPX display scaffold and an N-terminal constrained library of the form X2CX7CX2. The library has been made intrinsically fluorescent using a bicistronic expression vector to enable co-expression of a green fluorescent protein optimized for FACS.
The bacterial library was screened for binding peptides. For the first two cycles, screening was again conducted by co-sedimentation, where as many as 10^8 NSCs suspended via mechanical disruption in 0.5 mM EDTA as described^82 were incubated with 10^10 bacteria prior to several gentle centrifugations and rinses. The resulting mixture was added directly to bacterial media (LB) for expansion of the binding clones. The second cycle repeated this process with 10-fold fewer bacteria for higher stringency. In the third cycle, after incubation with 10^6 NSCs and washing, cells were sorted (as in FIGS. 5-6) using a DAKO-Cytomation MoFlo flow cytometer in the UC Berkeley Cancer Center to stringently isolate bacteria that are bound to NSCs. The resulting sorted bacteria were expanded. Plasmid DNA was isolated from a number of individual clones (at least 100)^79 and subjected to DNA sequencing to identify the peptide responsible for binding to the NSC surface.
Bacterial peptide display libraries were constructed, as described above, and tested for binding capacity to neural stem cells. Clonal populations of the bacterial peptide display libraries after the third round of selection were analyzed via flow cytometry to measure the binding capacity of the clones. Sequences of the clones were determined through DNA sequence of the plasmid expressed by the bacteria. Table 5 presents amino acid sequences of peptides and the binding capacity to NSCs of bacterial clones displaying the peptides.

The test system of experiment [2] is neural stem cells. The experiment is described as follows: NSC proliferation on peptide-grafted IPNs after 5 days (Cyquant). In kind it is cell-based, rat. Particulars: for cell proliferation: Cyquant, normalized to cells seeded. An excerpt: Cell proliferation was quantified on peptide-grafted IPN surfaces after 5 days with Cyquant. The cell number was normalized to the amount of cells seeded on the IPN surfaces.

Experiment [3] has as its system neural stem cells. The experiment is described as follows: Initial NSC attachment on peptide-grafted IPNs (Cyquant, 6 hours). The experiment is classed as cell-based, rat. Conditions: various grafting concentrations. The procedure: IPNs were grafted with RGD, 7C-9, and 7C-24 peptides at various concentrations. After allowing neural stem cells attach to the surface for 6 hours, the amount of cells was quantified with Cyquant, a fluorescent DNA-binding dye.

For experiment [4], the system named is neural stem cells. The experiment can be described thus: NSC adhesion and proliferation on peptide-modified IPNs. The experiment is classed as cell-based, rat. An excerpt: Neural stem cells are typically cultured on surfaces consisting of a poly(styrene)-based material with a passively adsorbed, animal-derived extracellular matrix (ECM) protein such as laminin or fibronectin.^67, 69 However, both animal- and human-derived ECM or proteins likely contain variable splice and glycoforms, offer limited micro- and nano-scale control of solid-phase signaling, pose problems with lot to lot variability, and otherwise present problems for therapeutic application.^16, 70 The ability of a peptide-modified interpenetrating polymer network (IPN) synthesized from acrylamide (AAm), poly(ethylene glycol) monomethyl ether monomethacrylate (pEGMA), and acrylic acid (AAc) monomers to support NSC growth was explored. NSCs isolated from the adult rat hippocampus,^67 were seeded onto 15 amino-acid bone sialoprotein RGD peptide [bsp-RGD(15)]-modified IPNs at various cell densities over four orders of magnitude.
FIG. 3.a-d) Bright field images of neural stem cells grown on peptide-modified IPNs or laminin-I in proliferating media conditions (1.2 nM FGF-2). e) Growth curves for proliferation of neural stem cells as assayed by a total nucleic acid stain. Data represent mean±standard deviation of 3-5 samples. Surfaces not in the same group (*, §, †, or ‡) were statistically different from one another (p<0.05; ANOVA between groups with Tukey-Kramer Honestly Significant Difference post-hoc test).

The test system of experiment [5] is H1 hES cells. The experiment is described as follows: H1 hES cell culture on peptide-conjugated IPN surfaces in NC-SFM. The experiment is classed as cell-based, human. Particulars: for hESC culture outcome (Oct4, survival): H1 cells, NC-SFM, peptide-conjugated IPN. The procedure:
To take an important step towards a fully chemically defined microenvironment, H1 hES cells were cultured,^17 for which a serum-free, defined medium has been developed. In addition, this feeder-free system involves culturing cells on tissue culture polystyrene coated with Matrigel, an ECM mixture of predominantly […], collagen IV, and heparan sulfate.^19, 82 Cells were grown in non-conditioned, serum free medium (NC-SFM), which consists of X-VIVO 10 (Cambrex, Walkersville, Md.) medium supplemented with 0.5 ng/mL TGF-β1 and 80 ng/mL FGF-2 (Invitrogen).
Cultures on Matrigel consisted of Oct4^+ hESC colonies interspersed with differentiated, Oct4-stromal cells derived from the hESCs, as previously described (note that the hESCs can be selectively passaged by timing the enzymatic digest).^82 H1 cells were also cultured in the NC-SFM on bsp-RGD(15) conjugated IPN surfaces (identical to those in FIGS. 3-4). […] Both HSF6 cells on the sIPN (FIG. 7) and H1 cells on the IPN were able to maintain Oct4 expression for 3 passages (˜10 days).

In experiment [6] the test system is neural stem cells. The experiment is described as follows: qRT-PCR marker expression / differentiation of NSCs on peptide-modified hydrogels. In kind it is cell-based, rat. An excerpt: Stem cells are defined not only by their self-renewal but also their ability to undergo differentiation into one or more phenotypes. […] Therefore, the synthetic IPN, displaying an integrin-binding peptide, was able to substitute for laminin in supporting NSC proliferation and differentiation.
The effects of varying peptide identity and density on NSC differentiation were explored.
The box plots summarize the distribution of points, where the thick line signifies the median and the ends of the box are the 25th and 75th quartiles.

Experiment [7] deals with Akt. The experiment can be described thus: Akt activation in neural stem cells on peptide hydrogels (Western blotting). In kind it is cell-based, rat. Conditions: NSCs on biomimetic hydrogel. An excerpt:
The phosphoinositide-3 kinase (PI 3-kinase) signaling pathway, which can be activated by numerous cell surface receptors, has been implicated in regulating cell survival and proliferation in a number of contexts.^90-92 After ligation and activation of canonical receptors, phosphorylation of receptor tails on specific tyrosine residues recruits PI 3-kinase to the cell surface to phosphorylate phosphoinositide lipids. These lipids then recruit several kinases, including PDK1 and Akt. Phosphorylation of the latter by the former activates Akt, which then modulates a number of downstream effectors (such as Bad, mTOR, forkhead transcription factors, GSK-3β, and others) important in cell survival, proliferation, and other functions.^92, 93 Very importantly, PI 3-kinase and Akt signaling may be a general pathway important for stem cell proliferation and self-renewal. […] Finally, chemical or genetic inhibition of this pathway inhibits self-renewal, whereas overexpression of transducers in this pathway promotes self-renewal in a mitogen-independent fashion.
FIG. 8. […] Likewise relocalization of a PH-GFP genetic sensor to the cell surface acts as a sensor of PI 3-kinase signal activation after FGF-2 addition. An analogous genetic sensor of Akt based on FRET has been generated.^6

[8] abbreviates: peptide hydrogel vs laminin, proliferating or differentiating media.

As to FWCIRGEYWVCDR [Clone 7C-12], in experiment [1], the “% NSCs with Bacteria” value was determined as 64.5%. Same read-out and setting: under GFVLVWSYTCRCWGK [Clone 15-50] stands 64.9%; under RRELVRMTDWVWVSG [Clone 15-32], 70.4%; under WTWESAFAGRWEVGD [Co-8], 61.7%. On the same count and under the same terms, then WRCLGDGYHACVR [Co-10], with 72.7%; and LNCAMYNACIW [Clone 7C-14], with 54.5%. Still for that read-out and setting: then LCCESYICALCHY [Clone 7C-11], with 37.7%.

For LEDAMGWALSWGHIW [Clone 15-6], in experiment [1], the “% NSCs with Bacteria” value was found to be 70.2%. On the same count and under the same terms, under WVCNKLGVYACEY [Clone 7C-19] stands 20.5%; under YMCMSRGDATCDV [Clone 7C-4], 62.0%. The same measure, in the same setting: under WLCLDKNCMACVW [Clone 7C-8] stands 68.8%; under LECTERGDFNCFV [Clone 7C-7], 47.8%; under GECFYYVMNTCVW [Clone 7C-6], 61.8%. Turning to ESGLKVMCMKYYCMA [Clone 15-52], the “% NSCs with Bacteria” value in experiment [1] is 63.3%. Still for that read-out and setting: then WYCFRENKYVCVM [Clone 7C-1], with 75.2%; and ESCWYQIMYKCAN [Clone 7C-2], with 55.2%. As for MYCERDSKYWCIH [Co-21], in experiment [1], the “% NSCs with Bacteria” value worked out at 70.9%.

With WFCLLGRSAYCVR [Clone 7C-3], the “% NSCs with Bacteria” value in experiment [1] amounted to 71.9%.

As to WQCGRFWCIHCLW [Co-19], the “% NSCs with Bacteria” value in experiment [1] was 50.6%.

Take RLCCWKTQYFCEI [Co-20]: in experiment [1], the “% NSCs with Bacteria” value is listed as 70.9%. For DHKFGLVMLNKYAYAG [Clone 15-2], the “% NSCs with Bacteria” value in experiment [1] stood at 75.9%. On the same count and under the same terms, under WDCGKKNAWMCIW [Co-5] stands 67.4%; under WVCIWERFKSCNE [Clone 7C-20], 65.7%.

Turning to WLCKGSNKYMCEW [Clone 7C-17], the “% NSCs with Bacteria” value in experiment [1] was 67.8%. Same read-out and setting: then DLCTYGHLWLGNGRP [Clone 15-59], with 22.5%. For WMCSGVQPNACVW [Clone 7C-22], the “% NSCs with Bacteria” value in experiment [1] amounted to 46.9%. The same measure, in the same setting: under QGCAFVTYWACIF [Co-16] stands 71.9%. Regarding “CGGNGEPRGETYRAY [bsp-RGE(15), negative control peptide]”, in experiment [2], the cell proliferation entry was “little or no cells detached”. Further, the cell attachment entry in experiment [3] is “below the detection limit of the assay”. Besides, the “cell adhesion and morphology on peptide-modified IPN” value in experiment [4] (proliferating media conditions (20 ng/ml FGF-2)) was “did not support attachment”. Moreover, the “hESC culture outcome (Oct4, survival)” value in experiment [5] is listed as “cells predominantly died”. In addition, in experiment [6] (as bsp-RGD(15) density was decreased and this peptide increased), the “neuronal differentiation / neuronal marker expression” value was “neuronal differentiation decreased”. For WWCDMRGDSRCSG [Clone 7C-24], the “% NSCs with Bacteria” value in experiment [1] was determined as 61.7%. The same measure, in the same setting: under WECAEESKFWCVF [Co-17] stands 72.1%; under SKCWGWTPYYCVA [Co-9], 75.7%. Consider WVCNDLIHHFCVW [Co-15], for which the “% NSCs with Bacteria” value in experiment [1] was determined as 70.9%. Take VWCGMFGKRRCVT [Co-22]: the “% NSCs with Bacteria” value in experiment [1] was determined as 75.6%. Take WVCLWRHRGDCSI [Co-12]: the “% NSCs with Bacteria” value in experiment [1] is 74.3%. Still for that read-out and setting: then STCSWVSSYVCIM [Co-13], with 64.8%; and GGCRWYAKWVCVW [Co-3], with 75.7%. The same measure, in the same setting: under LECPGESKYYCIY [Co-11] stands 72.7%. Still for that read-out and setting: under WSCPKVNQYACFW [Co-2] stands 74.8%; under LVCNRQNPWVCYI [Co-23], 71.1%.

Take SDWSVLLSCERWYCI [Clone 15-16]: the “% NSCs with Bacteria” value in experiment [1] is reported as 63.9%. On to “CGGNGEPRGDTYRAY [bsp-RGD(15), 15 amino-acid bone sialoprotein RGD peptide]”, for which, in experiment [2], the cell proliferation entry was “much higher amount of cell proliferation than 7C-9 and 7C-24-grafted surfaces”. Moreover, the “activation of Akt” value in experiment [7] is given as “activation of Akt to a greater extent than a surface displaying the negative control bsp-RGE(15) peptide”. Moreover, the NSC proliferation result in experiment [4] (highest peptide density, vs laminin-coated surfaces, p<0.05) is listed as “slightly faster cell proliferation than standard laminin-coated surfaces”. In addition, in experiment [4] (lower or no bsp-RGD(15), proliferating media), the “cell adhesion on IPN with lower peptide density” value is “cells did not adhere effectively”. Further, the “maintenance of Oct4 expression” value in experiment [5] (H1 cells on the IPN (~10 days)) was determined as 3 passages. Also, in experiment [5], the “hESC culture outcome (Oct4, survival)” value is “high Oct4 levels in large hESC colonies”. Further, the “nestin expression (qRT-PCR)” value in experiment [6] (21 pmol·cm^−2 peptide hydrogel vs laminin, 1.2 nM FGF-2) is “statistically indistinguishable levels of nestin”. In experiment [6] (setting [8]), the “GFAP expression (qRT-PCR)” value is given as “equal levels” and the “β-tubulin III expression (qRT-PCR)” value was “equal levels”.

Turning to QCCQLRGDAVCNC [Clone 7C-15], the “% NSCs with Bacteria” value in experiment [1] is on record as 54.0%. In the case of IWCGSRFGCWCKP [Clone 7C-5], the “% NSCs with Bacteria” value in experiment [1] is 65.6%. Same read-out and setting: then SLCAAYNRWACIW [Co-1], with 73.8%; and WNCIKGSSWACVW [Clone 7C-21], with 75.5%. With KLCCFDKGYYCMR [Clone 7C-9], in experiment [2] (low peptide surface concentrations, vs RGD surfaces), the “cell proliferation at similar surface peptide concentration” value is listed as “slower proliferation”. In experiment [1], the “% NSCs with Bacteria” value is given as 71.3%. For the sequence WWCKKPEYWYCIW [Co-18], in experiment [1], the “% NSCs with Bacteria” value came to 71.3%.
